# US20100298141A1, “SUBSTITUTED PYRIDINE N-OXIDE HERBICIDES” (E. I. DU PONT DE NEMOURS AND COMPANY, priority 2007, published 2010)
# Assays:
# cocklebur = test: Test C pre-/postemergence test; assay type: in vivo, Xanthium strumarium
# Method in brief: (§1)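 Seeds were planted and treated preemergence with test chemical in a non-phytotoxic solvent mixture containing surfactant. Postemergence applications of the same formulation went onto plants 2 to 18 cm tall (1- to 4-leaf stage). A dash marks no test result.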
# umbrella sedge = test: Test C flooded paddy test; assay type: in vivo, Cyperus difformis; settings: Flood
# Method in brief: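 Visual injury ratings against untreated controls, taken 13 to 15 days after compound was added to paddy water standing 3 cm above the soil.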
# pigweed = test: Test C pre-/postemergence test; assay type: in vivo, Amaranthus retroflexus
# Method in brief: as §1
# barnyardgrass = test: Test A pre-/postemergence greenhouse test; assay type: in vivo, Echinochloa crus-galli; settings: for Plant response rating, Barnyardgrass: 0 to 100 scale where 0 is no effect and 100 is complete control; for Barnyardgrass plant response rating: 0 to 100 scale
# Method in brief: (§2)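 Pots of loam–sand soil sown with the test species are sprayed preemergence on the soil surface; emerged seedlings (1–2 leaves, 2–10 cm) are sprayed postemergence at the same time. The vehicle is a non-phytotoxic solvent mixture with surfactant. Injury is scored visually after ~10 d in greenhouse.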
# soybean = test: Test C pre-/postemergence test; assay type: in vivo, Glycine max
# Method in brief: as §1
# Italian ryegrass = test: Test C pre-/postemergence test; assay type: in vivo, Lolium multiflorum
# Method in brief: as §1
# yellow nutsedge = test: Test C pre-/postemergence test; assay type: in vivo, Cyperus esculentus
# Method in brief: as §1
# woolly cupgrass = test: Test C pre-/postemergence test; assay type: in vivo, Eriochloa villosa
# Method in brief: as §1
# green foxtail = test: Test C pre-/postemergence test; assay type: in vivo, Setaria viridis
# Method in brief: as §1
# morningglory [1] = test: Test C pre-/postemergence test; assay type: in vivo, Ipomoea coccinea
# Method in brief: as §1
# corn = test: Test C pre-/postemergence test; assay type: in vivo, Zea mays
# Method in brief: as §1
# crabgrass = test: Test C pre-/postemergence test; assay type: in vivo, Digitaria sanguinalis
# Method in brief: as §1
# kochia = test: Test C pre-/postemergence test; assay type: in vivo, Kochia scoparia
# Method in brief: as §1
# wheat = test: Test C pre-/postemergence test; assay type: in vivo, Triticum aestivum
# Method in brief: as §1
# [2] = tested on: common (oilseed) sunflower; test: Test C pre-/postemergence test; assay type: in vivo, Helianthus annuus
# Method in brief: as §1
# blackgrass = test: Test C pre-/postemergence test; assay type: in vivo, Alopecurus myosuroides
# Method in brief: as §1
# morningglory [3] = test: Test A pre-/postemergence greenhouse test; assay type: in vivo, Ipomoea spp.; settings: for Plant response rating, Morningglory: 0 to 100 scale where 0 is no effect and 100 is complete control; for Morningglory plant response rating: 0 to 100 scale
# Method in brief: as §2
# [4] = 62 g ai/ha, Preemergence, scale 0 to 100
# [5] = 125 g ai/ha, preemergence, scale 0 (no effect) to 100 (complete control)
# [6] = Postemergence, 62 g ai/ha, scale 0 to 100, 0 no effect, 100 complete control
# [7] = Postemergence, 125 g ai/ha, scale 0 to 100, 0 no effect, 100 complete control
# [8] = Postemergence, 250 g ai/ha, scale 0 to 100, 0 no effect, 100 complete control
# [9] = Preemergence, 31 g ai/ha, scale 0 to 100 (0 no effect, 100 complete control)
# [10] = preemergence, 250 g ai/ha, scale 0 (no effect) to 100 (complete control)
# [11] = Postemergence, 500 g ai/ha, 0 is no effect, 100 is complete control
# [12] = Preemergence, 125 g ai/ha, 0 no effect, 100 complete control
compound,measurement,setting,value
Cn1nc(C(F)(F)F)c(C[S+]([O-])c2ccc(F)c[n+]2[O-])c1OC(F)F (stereo not shown) [Compound 58],Cocklebur plant response rating,cocklebur; [4],0
same,Cocklebur plant response rating,cocklebur; [5],0
same,"Plant response rating (0 to 100), Cocklebur","cocklebur; Postemergence, 31 g ai/ha",0
same,"Plant response rating, Cocklebur",cocklebur; [6],0
same,"Plant response rating, Cocklebur",cocklebur; [7],0
same,"Plant response rating, Cocklebur",cocklebur; [8],0
same,"Plant response rating, Cocklebur",cocklebur; [9],0
same,Cocklebur plant response rating,cocklebur; [10],40
same,"Plant response rating, Sedge, Umbrella","umbrella sedge; 62 g ai/ha, scale 0 to 100 (0 no effect, 100 complete control)",80
same,"Plant response rating, Sedge, Umbrella","umbrella sedge; 250 g ai/ha, scale 0 to 100, 0 no effect, 100 complete control, 13 to 15 days",80
same,Pigweed plant response rating,pigweed; [4],100
same,Pigweed plant response rating,pigweed; [5],100
same,"Plant response rating (0 to 100), Pigweed","pigweed; Postemergence, 31 g ai/ha",0
same,"Plant response rating (0 to 100), Pigweed","pigweed; Postemergence, 62 g ai/ha",0
same,"Plant response rating, Pigweed",pigweed; [7],5
same,"Plant response rating, Pigweed",pigweed; [8],10
same,"Plant response rating, Pigweed",pigweed; [9],100
same,Pigweed plant response rating,pigweed; [10],100
same,"Plant response rating, Barnyardgrass","barnyardgrass; Postemergence, 125 g ai/ha",80
same,Barnyardgrass plant response rating,barnyardgrass; [11],90
same,Barnyardgrass plant response rating,barnyardgrass; [12],90
same,"Plant response rating, Barnyardgrass","barnyardgrass; Preemergence, 500 g ai/ha",90
same,Soybean plant response rating,soybean; [4],100
same,Soybean plant response rating,soybean; [5],100
same,"Plant response rating (0 to 100), Soybean","soybean; Postemergence, 31 g ai/ha",20
same,"Plant response rating (0 to 100), Soybean","soybean; Postemergence, 62 g ai/ha",40
same,"Plant response rating, Soybean",soybean; [7],60
same,"Plant response rating, Soybean",soybean; [8],65
same,"Plant response rating, Soybean",soybean; [9],0
same,Soybean plant response rating,soybean; [10],100
same,"Ryegrass, Italian plant response rating",Italian ryegrass; [4],70
same,"Ryegrass, Italian plant response rating",Italian ryegrass; [5],98
same,"Plant response rating (0 to 100), Ryegrass, Italian","Italian ryegrass; Postemergence, 31 g ai/ha",0
same,"Plant response rating (0 to 100), Ryegrass, Italian","Italian ryegrass; Postemergence, 62 g ai/ha",40
same,"Plant response rating, Ryegrass, Italian",Italian ryegrass; [7],70
same,"Plant response rating, Ryegrass, Italian",Italian ryegrass; [8],90
same,"Plant response rating, Ryegrass, Italian",Italian ryegrass; [9],40
same,"Ryegrass, Italian plant response rating",Italian ryegrass; [10],100
same,"Nutsedge, Yellow plant response rating",yellow nutsedge; [4],40
same,"Nutsedge, Yellow plant response rating",yellow nutsedge; [5],70
same,"Plant response rating (0 to 100), Nutsedge, Yellow","yellow nutsedge; Postemergence, 31 g ai/ha",0
same,"Plant response rating, Nutsedge, Yellow",yellow nutsedge; [6],0
same,"Plant response rating, Nutsedge, Yellow",yellow nutsedge; [7],0
same,"Plant response rating, Nutsedge, Yellow",yellow nutsedge; [8],50
same,"Plant response rating, Nutsedge, Yellow",yellow nutsedge; [9],0
same,"Nutsedge, Yellow plant response rating",yellow nutsedge; [10],98
same,"Cupgrass, Woolly plant response rating",woolly cupgrass; [4],60
same,"Cupgrass, Woolly plant response rating",woolly cupgrass; [5],95
same,"Plant response rating (0 to 100), Cupgrass, Woolly","woolly cupgrass; Postemergence, 31 g ai/ha",0
same,"Plant response rating, Cupgrass, Woolly",woolly cupgrass; [6],0
same,"Plant response rating, Cupgrass, Woolly",woolly cupgrass; [7],10
same,"Plant response rating, Cupgrass, Woolly",woolly cupgrass; [8],80
same,"Plant response rating, Cupgrass, Woolly",woolly cupgrass; [9],10
same,"Cupgrass, Woolly plant response rating",woolly cupgrass; [10],100
same,"Foxtail, Green plant response rating",green foxtail; [4],98
same,"Foxtail, Green plant response rating",green foxtail; [5],100
same,"Plant response rating (0 to 100), Foxtail, Green","green foxtail; Postemergence, 31 g ai/ha",0
same,"Plant response rating, Foxtail, Green",green foxtail; [6],25
same,"Plant response rating, Foxtail, Green",green foxtail; [7],50
same,"Plant response rating, Foxtail, Green",green foxtail; [8],80
same,"Plant response rating, Foxtail, Green",green foxtail; [9],70
same,"Foxtail, Green plant response rating",green foxtail; [10],100
same,Morningglory plant response rating,morningglory [1]; [4],98
same,Morningglory plant response rating,morningglory [1]; [5],98
same,"Plant response rating (0 to 100), Morningglory","morningglory [1]; Postemergence, 31 g ai/ha",0
same,"Plant response rating, Morningglory",morningglory [1]; [6],0
same,"Plant response rating, Morningglory",morningglory [1]; [7],5
same,"Plant response rating, Morningglory",morningglory [1]; [8],5
same,"Plant response rating, Morningglory",morningglory [1]; [9],80
same,Morningglory plant response rating,morningglory [1]; [10],100
same,Corn plant response rating,corn; [4],100
same,Corn plant response rating,corn; [5],100
same,"Plant response rating (0 to 100), Corn","corn; Postemergence, 31 g ai/ha",0
same,"Plant response rating, Corn",corn; [6],0
same,"Plant response rating, Corn",corn; [7],0
same,"Plant response rating, Corn",corn; [8],0
same,"Plant response rating, Corn",corn; [9],75
same,Corn plant response rating,corn; [10],100
same,"Crabgrass, Large plant response rating",crabgrass; [4],100
same,"Crabgrass, Large plant response rating",crabgrass; [5],100
same,"Plant response rating (0 to 100), Crabgrass, Large","crabgrass; Postemergence, 31 g ai/ha",0
same,"Plant response rating, Crabgrass, Large",crabgrass; [6],0
same,"Plant response rating, Crabgrass, Large",crabgrass; [7],0
same,"Plant response rating, Crabgrass, Large",crabgrass; [8],45
same,"Plant response rating, Crabgrass, Large",crabgrass; [9],50
same,"Crabgrass, Large plant response rating",crabgrass; [10],100
same,Kochia plant response rating,kochia; [4],50
same,Kochia plant response rating,kochia; [5],100
same,"Plant response rating (0 to 100), Kochia","kochia; Postemergence, 31 g ai/ha",0
same,"Plant response rating, Kochia",kochia; [6],0
same,"Plant response rating, Kochia",kochia; [7],0
same,"Plant response rating, Kochia",kochia; [8],50
same,"Plant response rating, Kochia",kochia; [9],0
same,Kochia plant response rating,kochia; [10],100
same,Wheat plant response rating,wheat; [4],60
same,Wheat plant response rating,wheat; [5],85
same,"Plant response rating (0 to 100), Wheat","wheat; Postemergence, 31 g ai/ha",0
same,"Plant response rating (0 to 100), Wheat","wheat; Postemergence, 62 g ai/ha",0
same,"Plant response rating, Wheat",wheat; [7],20
same,"Plant response rating, Wheat",wheat; [8],60
same,"Plant response rating, Wheat",wheat; [9],10
same,Wheat plant response rating,wheat; [10],90
same,Sunflower plant response rating,[2]; [4],35
same,Sunflower plant response rating,[2]; [5],35
same,"Plant response rating, Sunflower",[2]; [9],10
same,Sunflower plant response rating,[2]; [10],85
same,Blackgrass plant response rating,blackgrass; [4],98
same,Blackgrass plant response rating,blackgrass; [5],100
same,"Plant response rating (0 to 100), Blackgrass","blackgrass; Postemergence, 31 g ai/ha",0
same,"Plant response rating, Blackgrass",blackgrass; [6],0
same,"Plant response rating, Blackgrass",blackgrass; [7],30
same,"Plant response rating, Blackgrass",blackgrass; [8],80
same,"Plant response rating, Blackgrass",blackgrass; [9],98
same,Blackgrass plant response rating,blackgrass; [10],100
same,"Plant response rating, Morningglory","morningglory [3]; Postemergence, 125 g ai/ha",70
same,Morningglory plant response rating,morningglory [3]; [11],90
same,Morningglory plant response rating,morningglory [3]; [12],60
same,"Plant response rating, Morningglory","morningglory [3]; Preemergence, 500 g ai/ha",100
